Measured values published in publication PMC9411704, “Assessment of the Carcinogenic Potential of Pretomanid in Transgenic Tg.rasH2 Mice” (International Journal of Toxicology, 2022).
Like-named read-outs stand apart in the source and are kept apart here.

Columns and labels:
[1] = Toxicokinetic assessment in wild-type CByB6F1 mice (Day 14); assay type: in vivo
Experimental: TK animals were included for the vehicle control (n = 4 sex) and pretomanid-treated groups (n = 10 sex/group). The TK cohort animals were dosed by oral gavage once daily for 14 consecutive days.
Toxicokinetic blood samples (300 μL for males and 250 μL for females) were collected in K3EDTA tubes after 14 doses from the TK cohort via retro-orbital bleeding under 70% CO2/30% O2 anesthesia. On Day 14, control mice were bled once 2 hours after dosing. On Day 14 and 15, Pretomanid-treated mice were bled predose, 0.5, 1, 3, 6, and 24 hours post dose. TK animals were euthanized after their final blood collection.
Collected blood was stored on wet ice until the samples were processed to plasma. Blood samples were centrifuged at 4±2°C and 8000 g for 5 minutes. Plasma was snap frozen in liquid nitrogen and stored in a deep freezer (≤−60°C) within 60 minutes of bleeding the TK animals.
Pretomanid and the M50 metabolite were quantified in mouse plasma by liquid chromatography-tandem mass spectrometry (LC-MS/MS) after protein precipitation. Aliquots of 25 µL of plasma were spiked with internal standards (PA-824-d5 or morphine) and proteins were precipitated in 1% formic acid in acetonitrile. A partial supernatant from each sample was transferred to a clean plate and diluted in acetonitrile/water (40:60) for pretomanid and deionized water for M50. Supernatant was analyzed for pretomanid or M50 using validated LC-MS/MS methods with a linear range of 20 to 10,000 ng/mL for pretomanid and 10 to 5,000 ng/mL for M50 (methods validated at Alliance Pharma, Malvern PA).
Sample collection time and plasma concentration data were analyzed to derive TK parameters by standard model independent methods based on the mean plasma concentration-time data for each dose group. The TK analyses of the plasma concentration profiles were performed using non-compartmental analysis in Phoenix WinNonlin Professional 7.0 (Certara, L.P., St. Louis, MO, USA). Concentration values below the lower limit of quantitation were treated as zeros for analysis purposes.

[2] = tested on: Salmonella typhimurium TA98, TA100, TA1535, TA1537 and Escherichia coli WP2uvrA; experiment: Bacterial reverse mutation (Ames) assay, overall over five tester strains; assay type: cell-based; details: up to 5000 μg/plate
Experimental: (§1) Pretomanid and metabolite M50 were evaluated over a range of concentrations, with and without an added metabolic activation system, in five tester strains: Salmonella typhimurium histidine auxotrophs TA98, TA100, TA1535, and TA1537 [9] and the Escherichia coli tryptophan auxotroph WP2uvrA. S. typhimurium strains were received from Dr. Bruce Ames, Department of Biochemistry, University of California (Berkeley, CA). The E. coli strain was received from The National Collection of Industrial Bacteria, Torrey Research Station, Aberdeen, Scotland (United Kingdom). The metabolic activation system was a liver homogenate (S9) mix. The S9 component was prepared from male Sprague-Dawley rats that had been injected (intraperitoneally) with Aroclor^TM 1254 at 500 mg/kg, 5 days before sacrifice. The S9 mix was prepared immediately before use and contained 10% S9, 5 mM glucose-6-phosphate, 4 mM β-nicotinamide adenine dinucleotide phosphate, 8 mM MgCl2 and 33 mM KCl in a 100 mM phosphate buffer at pH 7.4. Pretomanid was tested at 0.05 to 5000 μg/plate. Metabolite M50 was tested at 78 to 2500 μg/plate. A negative (solvent) control culture and appropriate positive control cultures were included in each assay.
(§2) Bacteria were exposed to test materials by the plate incorporation method originally described by Ames et al and updated by Maron and Ames. Bottom agar was Vogel-Bonner minimal medium E [12] with 1.5% (w/v) agar, and the top Agar was 0.7% (w/v) agar and 0.5% (w/v) NaCl. After incubation, cultures were evaluated using a dissecting microscope for precipitation or cytotoxicity, and revertant colonies were counted. The mean numbers of revertant colonies in various cultures were compared to reach conclusions about assay validity and mutagenic potential. For the test article to be evaluated positive, it must cause a dose-related increase in the mean revertants per plate of at least one tester strain with a minimum of two increasing concentrations of test article.

[3] = tested on: Escherichia coli WP2uvrA; experiment: Bacterial reverse mutation (Ames) assay, plate incorporation
Experimental: as §1, §2

[4] = tested on: Salmonella typhimurium TA1535; experiment: as above; assay type: cell-based
Experimental: as §1, §2

[5] = tested on: Salmonella typhimurium TA1537; experiment: as above; assay type: cell-based
Experimental: as §1, §2

[6] = tested on: Salmonella typhimurium TA98; experiment: as above; assay type: cell-based
Experimental: as §1, §2

[7] = tested on: Salmonella typhimurium TA100; experiment: as above; assay type: cell-based
Experimental: as §1, §2

Work on O=[N+]([O-])c1cn2c(n1)OC[C@@H](OCc1ccc(OC(F)(F)F)cc1)C2 [Pretomanid, (6S)-2-nitro-6-{[4-(trifluoromethoxy)benzyl]oxy}-6,7-dihydro-5H-imidazo[2,1-b][1,3]oxazine] yielded an AUC(0-t) ([1]; CByB6F1 (wild-type), mouse, female, pretomanid 10 mg/kg/day oral, Day 14, plasma, read-out: Pretomanid AUC0-24) of 24900 ng·h/mL, a Cmax ([1]; CByB6F1 (wild-type), mouse, female, pretomanid 30 mg/kg/day oral, Day 14, plasma) of 6900 ng/mL and an AUC(0-t) ([1]; CByB6F1 (wild-type), mouse, female, pretomanid 30 mg/kg/day oral, Day 14, plasma, read-out: Pretomanid AUC0-24) of 87500 ng·h/mL. For the same molecule, the Cmax ([1]; CByB6F1 (wild-type), mouse, female, pretomanid 80 mg/kg/day oral, Day 14, plasma) was 16200 ng/mL, the AUC(0-t) ([1]; CByB6F1 (wild-type), mouse, female, pretomanid 80 mg/kg/day oral, Day 14, plasma, read-out: Pretomanid AUC0-24) was 186000 ng·h/mL and the “Exposure to pretomanid relative to exposure to the M50 metabolite” value ([1]; Day 14, all dose levels, both sexes) was “more than 10 times”. The AUC(0-t) ([1]; both sexes, CByB6F1 (wild-type), mouse, plasma, oral, high dose (40 male, 80 female mg/kg/day), read-out: Gender averaged mouse AUC0-24 of pretomanid) was 149000 ng·h/mL, the Cmax ([1]; wild-type CByB6F1, mouse, female, pretomanid 10 mg/kg/day oral, Day 14, plasma) was 2900 ng/mL and the Cmax ([1]; wild-type CByB6F1, mouse, male, pretomanid 5 mg/kg/day oral, Day 14, plasma) was 1800 ng/mL. The AUC(0-t) ([1]; wild-type CByB6F1, mouse, male, pretomanid 5 mg/kg/day oral, Day 14, plasma, read-out: Pretomanid AUC0-24) was 13700 ng·h/mL, the Cmax ([1]; wild-type CByB6F1, mouse, male, pretomanid 15 mg/kg/day oral, Day 14, plasma) was 4900 ng/mL and the AUC(0-t) ([1]; wild-type CByB6F1, mouse, male, pretomanid 15 mg/kg/day oral, Day 14, plasma, read-out: Pretomanid AUC0-24) was 50800 ng·h/mL. The Cmax ([1]; wild-type CByB6F1, mouse, male, pretomanid 40 mg/kg/day oral, Day 14, plasma) was 10400 ng/mL, the AUC(0-t) ([1]; wild-type CByB6F1, mouse, male, pretomanid 40 mg/kg/day oral, Day 14, plasma, read-out: Pretomanid AUC0-24) was 112000 ng·h/mL and the “Change in number of revertant colonies” value ([2]; any tester strain under any conditions) was “did not cause a significant increase”. For the same molecule, the “Cytotoxicity in the Ames assay” value [2] was “no appreciable cytotoxicity”, the Mutagenic potential ([2]; with and without S9) was “negative” and the “Mean Number of Revertants/Plate” value ([3]; WP2uvrA +S9, 100 μg/plate) was 16 Revertants/Plate. The “Mean Number of Revertants/Plate” value ([3]; WP2uvrA +S9, 333 μg/plate) was 17 Revertants/Plate, the “Mean Number of Revertants/Plate” value ([3]; WP2uvrA +S9, 1000 μg/plate) was 15 Revertants/Plate and the “Mean Number of Revertants/Plate” value ([3]; WP2uvrA +S9, 3333 μg/plate) was 10 Revertants/Plate. For the same molecule, the “Mean Number of Revertants/Plate” value ([3]; WP2uvrA +S9, 5000 μg/plate) was 14 Revertants/Plate, the “Mean Number of Revertants/Plate” value ([3]; WP2uvrA −S9, 100 μg/plate) was 23 Revertants/Plate and the “Mean Number of Revertants/Plate” value ([3]; WP2uvrA −S9, 333 μg/plate) was 21 Revertants/Plate. The “Mean Number of Revertants/Plate” value ([3]; WP2uvrA −S9, 1000 μg/plate) was 17 Revertants/Plate, the “Mean Number of Revertants/Plate” value ([3]; WP2uvrA −S9, 3333 μg/plate) was 11 Revertants/Plate and the “Mean Number of Revertants/Plate” value ([3]; WP2uvrA −S9, 5000 μg/plate) was 16 Revertants/Plate. For the same molecule, the “Mean Number of Revertants/Plate” value ([4]; TA1535 +S9, 100 μg/plate) was 12 Revertants/Plate, the “Mean Number of Revertants/Plate” value ([4]; TA1535 +S9, 333 μg/plate) was 13 Revertants/Plate and the “Mean Number of Revertants/Plate” value ([4]; TA1535 +S9, 1000 μg/plate) was 10 Revertants/Plate. The “Mean Number of Revertants/Plate” value ([4]; TA1535 +S9, 3333 μg/plate) was 11 Revertants/Plate, the “Mean Number of Revertants/Plate” value ([4]; TA1535 +S9, 5000 μg/plate) was 14 Revertants/Plate and the “Mean Number of Revertants/Plate” value ([4]; TA1535 −S9, 100 μg/plate) was 9 Revertants/Plate. The “Mean Number of Revertants/Plate” value ([4]; TA1535 −S9, 333 μg/plate) was 10 Revertants/Plate, the “Mean Number of Revertants/Plate” value ([4]; TA1535 −S9, 1000 μg/plate) was 10 Revertants/Plate and the “Mean Number of Revertants/Plate” value ([4]; TA1535 −S9, 3333 μg/plate) was 8 Revertants/Plate. For the same molecule, the “Mean Number of Revertants/Plate” value ([4]; TA1535 −S9, 5000 μg/plate) was 7 Revertants/Plate, the “Mean Number of Revertants/Plate” value ([5]; TA1537 +S9, 100 μg/plate) was 9 Revertants/Plate and the “Mean Number of Revertants/Plate” value ([5]; TA1537 +S9, 333 μg/plate) was 6 Revertants/Plate. The “Mean Number of Revertants/Plate” value ([5]; TA1537 +S9, 1000 μg/plate) was 5 Revertants/Plate, the “Mean Number of Revertants/Plate” value ([5]; TA1537 +S9, 3333 μg/plate) was 5 Revertants/Plate and the “Mean Number of Revertants/Plate” value ([5]; TA1537 +S9, 5000 μg/plate) was 4 Revertants/Plate. For the same molecule, the “Mean Number of Revertants/Plate” value ([5]; TA1537 −S9, 100 μg/plate) was 5 Revertants/Plate, the “Mean Number of Revertants/Plate” value ([5]; TA1537 −S9, 333 μg/plate) was 5 Revertants/Plate and the “Mean Number of Revertants/Plate” value ([5]; TA1537 −S9, 1000 μg/plate) was 10 Revertants/Plate. For the same molecule, the “Mean Number of Revertants/Plate” value ([5]; TA1537 −S9, 3333 μg/plate) was 5 Revertants/Plate, the “Mean Number of Revertants/Plate” value ([5]; TA1537 −S9, 5000 μg/plate) was 5 Revertants/Plate and the “Mean Number of Revertants/Plate” value ([6]; TA98 +S9, 100 μg/plate) was 22 Revertants/Plate. For the same molecule, the “Mean Number of Revertants/Plate” value ([6]; TA98 +S9, 333 μg/plate) was 26 Revertants/Plate, the “Mean Number of Revertants/Plate” value ([6]; TA98 +S9, 1000 μg/plate) was 23 Revertants/Plate and the “Mean Number of Revertants/Plate” value ([6]; TA98 +S9, 3333 μg/plate) was 16 Revertants/Plate. For the same molecule, the “Mean Number of Revertants/Plate” value ([6]; TA98 +S9, 5000 μg/plate) was 22 Revertants/Plate, the “Mean Number of Revertants/Plate” value ([6]; TA98 −S9, 100 μg/plate) was 25 Revertants/Plate and the “Mean Number of Revertants/Plate” value ([6]; TA98 −S9, 333 μg/plate) was 12 Revertants/Plate. The “Mean Number of Revertants/Plate” value ([6]; TA98 −S9, 1000 μg/plate) was 18 Revertants/Plate, the “Mean Number of Revertants/Plate” value ([6]; TA98 −S9, 3333 μg/plate) was 17 Revertants/Plate and the “Mean Number of Revertants/Plate” value ([6]; TA98 −S9, 5000 μg/plate) was 15 Revertants/Plate. For the same molecule, the “Mean Number of Revertants/Plate” value ([7]; TA100 +S9, 100 μg/plate) was 137 Revertants/Plate, the “Mean Number of Revertants/Plate” value ([7]; TA100 +S9, 333 μg/plate) was 179 Revertants/Plate and the “Mean Number of Revertants/Plate” value ([7]; TA100 +S9, 1000 μg/plate) was 173 Revertants/Plate. For the same molecule, the “Mean Number of Revertants/Plate” value ([7]; TA100 +S9, 3333 μg/plate) was 166 Revertants/Plate, the “Mean Number of Revertants/Plate” value ([7]; TA100 +S9, 5000 μg/plate) was 179 Revertants/Plate and the “Mean Number of Revertants/Plate” value ([7]; TA100 −S9, 100 μg/plate) was 119 Revertants/Plate. The “Mean Number of Revertants/Plate” value ([7]; TA100 −S9, 333 μg/plate) was 107 Revertants/Plate, the “Mean Number of Revertants/Plate” value ([7]; TA100 −S9, 1000 μg/plate) was 115 Revertants/Plate and the “Mean Number of Revertants/Plate” value ([7]; TA100 −S9, 3333 μg/plate) was 99 Revertants/Plate. For the same molecule, the “Mean Number of Revertants/Plate” value ([7]; TA100 −S9, 5000 μg/plate) was 106 Revertants/Plate.
